Data taken from PubChem BioAssay AID1963874 (Molecular Pharmacology Branch, DTP, NCI, 2024).
Values joined by “and” are separate entries in the source; they are usually repeats but may differ in a detail not shown here. Equal values may be shown once.

Tested on: 253994-281-T-J1-PDC KRAS-mutant spheroids with HUVEC/MSC, viability
Assay: Anticancer human tumor 253994-281-T-J1-PDC patient-derived colorectal carcinoma cell line growth inhibition [KRAS2]
Conditions: for viability, T/C: stronger effect = lower value
Procedure, shortened: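 Combination screen of spheroid viability in tumor-cell co-cultures with endothelial (HUVEC) and mesenchymal stem cell stroma. Each agent was tested in half-log dilutions, topping at clinical Cmax or at 10 microM without a known Cmax.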

[1] = curve of first compound, second compound 0.1 µM
[2] = curve of first compound, second compound 0.316 µM
[3] = curve of first compound, second compound 1 µM
[4] = curve of first compound, second compound 3.16 µM
[5] = second compound 0.1 µM, first compound 0.01 µM
[6] = second compound 0.1 µM, first compound 0.0316 µM
[7] = second compound 0.1 µM, first compound 0.1 µM
[8] = second compound 0.1 µM, first compound 0.316 µM
[9] = second compound 0.1 µM, first compound 1 µM
[10] = second compound 0.316 µM, first compound 0.01 µM
[11] = second compound 0.316 µM, first compound 0.0316 µM
[12] = second compound 0.316 µM, first compound 0.1 µM
[13] = second compound 0.316 µM, first compound 0.316 µM
[14] = second compound 0.316 µM, first compound 1 µM
[15] = second compound 1 µM, first compound 0.01 µM
[16] = second compound 1 µM, first compound 0.0316 µM
[17] = second compound 1 µM, first compound 0.1 µM
[18] = second compound 1 µM, first compound 0.316 µM
[19] = second compound 1 µM, first compound 1 µM
[20] = second compound 3.16 µM, first compound 0.01 µM
[21] = second compound 3.16 µM, first compound 0.0316 µM
[22] = second compound 3.16 µM, first compound 0.1 µM
[23] = second compound 3.16 µM, first compound 0.316 µM
[24] = second compound 3.16 µM, first compound 1 µM
[25] = curve of first compound, second compound 10 µM
[26] = second compound 0.1 µM, first compound 3.16 µM
[27] = second compound 0.316 µM, first compound 3.16 µM
[28] = second compound 1 µM, first compound 3.16 µM
[29] = second compound 3.16 µM, first compound 3.16 µM
[30] = second compound 10 µM, first compound 0.01 µM
[31] = second compound 10 µM, first compound 0.0316 µM
[32] = second compound 10 µM, first compound 0.1 µM
[33] = second compound 10 µM, first compound 0.316 µM
[34] = second compound 10 µM, first compound 1 µM
[35] = second compound 10 µM, first compound 3.16 µM
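Also: spheroids exposed to agents for seven days before readout.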
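For viability, T/C in this document: percent of DMSO vehicle control viability.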

| SMILES | IC50 [1] | IC50 [2] | IC50 [3] | IC50 [4] | viability, T/C [5] | viability, T/C [6] | viability, T/C [7] | viability, T/C [8] | viability, T/C [9] | viability, T/C [10] | viability, T/C [11] | viability, T/C [12] | viability, T/C [13] | viability, T/C [14] | viability, T/C [15] | viability, T/C [16] | viability, T/C [17] | viability, T/C [18] | viability, T/C [19] | viability, T/C [20] | also measured |
| --- | --- | --- | --- | --- | --- | --- | --- | --- | --- | --- | --- | --- | --- | --- | --- | --- | --- | --- | --- | --- | --- |
| CCN1CCN(Cc2ccc(Nc3ncc(F)c(-c4cc(F)c5nc(C)n(C(C)C)c5c4)n3)nc2)CC1 + C=CC(=O)N1CCN(c2nc(OCC3CCCN3C)nc3c2CCN(c2cccc4cccc(C)c24)C3)CC1CC#N | 751 nM | > 1000 nM | 586 nM | 41.4 nM | 89.7% | 79.3% | 82.5% | 73.4% | 42.2% | 92.4% | 85% | 77.5% | 68% | 52.5% | 95.7% | 82.7% | 74.9% | 64.9% | 38% | 61.1% | IC50 (curve of first compound, second compound 0.0316 µM): > 1000 nM; viability, T/C (second compound 0.0316 µM, first compound 0.00316 µM): 91.2%; viability, T/C (second compound 0.0316 µM, first compound 0.01 µM): 105%; viability, T/C (second compound 0.0316 µM, first compound 0.0316 µM): 79.4%; viability, T/C (second compound 0.0316 µM, first compound 0.1 µM): 92.2%; viability, T/C (second compound 0.0316 µM, first compound 0.316 µM): 66.8%; viability, T/C (second compound 0.0316 µM, first compound 1 µM): 51.6%; viability, T/C (second compound 0.1 µM, first compound 0.00316 µM): 88.7%; viability, T/C (second compound 0.316 µM, first compound 0.00316 µM): 90.5%; viability, T/C (second compound 1 µM, first compound 0.00316 µM): 81.4%; viability, T/C (second compound 3.16 µM, first compound 0.00316 µM): 61.5%; viability, T/C [21]: 57%; viability, T/C [22]: 32.9%; viability, T/C [23]: 15.3%; viability, T/C [24]: 1.78% |
| CC1COCCN1c1cc(-c2ccnn2C)c2ccnc(-c3ccn[nH]3)c2n1 (configuration not stated) + C=CC(=O)N1CCN(c2nc(=O)n(-c3c(C)ccnc3C(C)C)c3nc(-c4c(O)cccc4F)c(F)cc23)C(C)C1 | > 3160 nM | > 3160 nM | > 3160 nM | > 3160 nM | 97.5% | 93.9% | 76.9% | 55.7% | 50.6% | 105% | 90% | 76.6% | 51.7% | 60.8% | 105% | 89% | 72.7% | 61.9% | 59.6% | 100% | IC50 [25]: > 3160 nM; viability, T/C [26]: 56.5%; viability, T/C [27]: 57.4%; viability, T/C [28]: 57.2%; viability, T/C [21]: 99.6%; viability, T/C [22]: 73.2%; viability, T/C [23]: 51.7%; viability, T/C [24]: 51.4%; viability, T/C [29]: 58.9%; viability, T/C [30]: 94.9%; viability, T/C [31]: 111%; viability, T/C [32]: 75.2%; viability, T/C [33]: 56.4%; viability, T/C [34]: 55.3%; viability, T/C [35]: 62% |
| CC(=O)OC12COC1CC(O)C1(C)C(=O)C(O)C3=C(C)C(OC(=O)C(O)C(NC(=O)OC(C)(C)C)c4ccccc4)CC(O)(C(OC(=O)c4ccccc4)C21)C3(C)C (configuration not stated) + CC1OCC2(CCN(c3cnc(Sc4ccnc(N)c4Cl)c(N)n3)CC2)C1N | 20.4 nM | < 10 nM | 27.1 nM | < 10 nM | 68.7% | 39.5% | 26.3% | 23.2% | 27.5% | 48.8% | 29.2% | 18.4% | 19.2% | 20.3% | 92% | 42% | 31.2% | 24% | 21% | 19.8% | IC50 [25]: < 10 nM; viability, T/C [26]: 21.8%; viability, T/C [27]: 18.1%; viability, T/C [28]: 21.7%; viability, T/C [21]: 18%; viability, T/C [22]: 11.9%; viability, T/C [23]: 11.7%; viability, T/C [24]: 14.8%; viability, T/C [29]: 12.5%; viability, T/C [30]: 20%; viability, T/C [31]: 14.4%; viability, T/C [32]: 13.3%; viability, T/C [33]: 12.8%; viability, T/C [34]: 10.5%; viability, T/C [35]: 11.8% |
| CC1OCC2(CCN(c3cnc(Sc4ccnc(N)c4Cl)c(N)n3)CC2)C1N (configuration not stated) |  |  |  |  |  |  |  |  |  |  |  |  |  |  |  |  |  |  |  |  | viability, T/C (compound 0.0316 µM): 90.6% and 111% and 96.5%; IC50 (curve of compound): > 10000 nM |
